Test results published in PMC12042413 (Cell chemical biology, 2025).

Tests used:
CDK9/Cyclin T1 = CDK9/Cyclin T1 (Homo sapiens, UniProt P50750); assay: biochemical kinase IC50
CDK9 = CDK9 (Homo sapiens, UniProt P50750); assay: competition rescue of CDK9 degradation in MOLT-4 cells; assay type: cell-based
CDK9, sequence (P50750 whole entry): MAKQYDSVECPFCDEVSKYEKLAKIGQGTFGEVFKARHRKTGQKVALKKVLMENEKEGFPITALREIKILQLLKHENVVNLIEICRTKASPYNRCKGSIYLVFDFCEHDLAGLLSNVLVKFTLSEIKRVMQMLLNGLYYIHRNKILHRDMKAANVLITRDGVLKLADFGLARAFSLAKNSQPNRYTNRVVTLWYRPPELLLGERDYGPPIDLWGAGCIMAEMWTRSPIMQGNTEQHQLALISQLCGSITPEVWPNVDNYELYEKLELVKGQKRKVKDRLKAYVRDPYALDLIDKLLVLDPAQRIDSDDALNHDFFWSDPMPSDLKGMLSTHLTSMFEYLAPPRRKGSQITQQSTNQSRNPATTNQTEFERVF

CDK9/Cyclin T1, sequence (P50750 whole entry): as above
CDK9/Cyclin T1, sequence (O60563 whole entry partner): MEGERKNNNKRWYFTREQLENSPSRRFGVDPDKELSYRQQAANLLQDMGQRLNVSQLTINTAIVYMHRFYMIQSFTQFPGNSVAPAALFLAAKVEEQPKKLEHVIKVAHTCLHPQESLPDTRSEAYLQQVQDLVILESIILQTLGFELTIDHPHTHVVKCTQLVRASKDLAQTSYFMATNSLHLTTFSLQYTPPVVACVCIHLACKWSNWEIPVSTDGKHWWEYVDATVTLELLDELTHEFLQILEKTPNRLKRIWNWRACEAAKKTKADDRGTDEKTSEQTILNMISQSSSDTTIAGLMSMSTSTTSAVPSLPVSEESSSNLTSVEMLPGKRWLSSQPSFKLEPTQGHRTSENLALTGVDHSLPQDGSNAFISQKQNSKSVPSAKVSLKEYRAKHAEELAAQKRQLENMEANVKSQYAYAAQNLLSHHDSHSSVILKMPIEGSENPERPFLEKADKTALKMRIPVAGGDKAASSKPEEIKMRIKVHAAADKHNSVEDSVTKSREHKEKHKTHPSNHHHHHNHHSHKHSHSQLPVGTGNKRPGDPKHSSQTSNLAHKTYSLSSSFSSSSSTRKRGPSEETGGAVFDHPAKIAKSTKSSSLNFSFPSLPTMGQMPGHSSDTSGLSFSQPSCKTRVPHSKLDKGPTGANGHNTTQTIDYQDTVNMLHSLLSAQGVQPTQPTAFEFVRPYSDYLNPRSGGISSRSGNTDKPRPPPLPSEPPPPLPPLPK

IC50 (CDK9/Cyclin T1) | SMILES | competition rescue of CDK9 degradation in MOLT-4 cells (Western blot, 5 uM) (CDK9)
3 nM | CCCc1cc(N[C@@H]2CC[C@@H](NC(=O)c3ccc(CN4CCN(c5ccc6c(c5)CN(C5CCC(=O)NC5=O)C6=O)CC4)cc3)C2)n2nccc2n1 (stereo partly drawn) [KI-CDK9d-32, 4-((4-(2-(2,6-dioxopiperidin-3-yl)-1-oxoisoindolin-5-yl)piperazin-1-yl)methyl)-N-((1R,3R)-3-((5-propylpyrazolo[1,5-a]pyrimidin-7-yl)amino)cyclopentyl)benzamide] | 
 | CCCc1cc(N[C@@H]2CC[C@@H](NC(=O)c3ccc(CN4CCN(c5ccc6c(c5)CN(C5CCC(=O)N(C)C5=O)C6=O)CC4)cc3)C2)n2nccc2n1 (stereo partly drawn) [KI-CDK9d-32N, 4-((4-(2-(1-methyl-2,6-dioxopiperidin-3-yl)-1-oxoisoindolin-5-yl)piperazin-1-yl)methyl)-N-((1R,3R)-3-((5-propylpyrazolo[1,5-a]pyrimidin-7-yl)amino)cyclopentyl)benzamide] | rescued through co-treatments with excess KB-0742, pomalidomide, or KI-CDK9d-32N, a negative control PROTAC with impaired CRBN binding
